Data as given in ChEMBL document CHEMBL4152355, “Novel multi-target compounds in the quest for new chemotherapies against Alzheimer's disease: An experimental and theoretical study” (Bioorg Med Chem, 2018).
The source made the active and inactive calls. No cut-off for these calls is given here.

Key:
[1] = Disaggregation of Cu2+ induced amyloid beta (1 to 40) preformed fibrils assessed as aggregation level at 100 uM after 12 days by UV-visible turbidity method (reference value: 120.73 +/- 1.86%)
[2] = target: Amyloid-beta precursor protein (Homo sapiens) (UniProt P05067); experiment: Disaggregation of self-induced amyloid beta (1 to 40) (unknown origin) preformed fibrils assessed as aggregation level at 100 uM after 4 days by UV-visible turbidity method
Amyloid-beta precursor protein (Homo sapiens), sequence (P05067 whole entry): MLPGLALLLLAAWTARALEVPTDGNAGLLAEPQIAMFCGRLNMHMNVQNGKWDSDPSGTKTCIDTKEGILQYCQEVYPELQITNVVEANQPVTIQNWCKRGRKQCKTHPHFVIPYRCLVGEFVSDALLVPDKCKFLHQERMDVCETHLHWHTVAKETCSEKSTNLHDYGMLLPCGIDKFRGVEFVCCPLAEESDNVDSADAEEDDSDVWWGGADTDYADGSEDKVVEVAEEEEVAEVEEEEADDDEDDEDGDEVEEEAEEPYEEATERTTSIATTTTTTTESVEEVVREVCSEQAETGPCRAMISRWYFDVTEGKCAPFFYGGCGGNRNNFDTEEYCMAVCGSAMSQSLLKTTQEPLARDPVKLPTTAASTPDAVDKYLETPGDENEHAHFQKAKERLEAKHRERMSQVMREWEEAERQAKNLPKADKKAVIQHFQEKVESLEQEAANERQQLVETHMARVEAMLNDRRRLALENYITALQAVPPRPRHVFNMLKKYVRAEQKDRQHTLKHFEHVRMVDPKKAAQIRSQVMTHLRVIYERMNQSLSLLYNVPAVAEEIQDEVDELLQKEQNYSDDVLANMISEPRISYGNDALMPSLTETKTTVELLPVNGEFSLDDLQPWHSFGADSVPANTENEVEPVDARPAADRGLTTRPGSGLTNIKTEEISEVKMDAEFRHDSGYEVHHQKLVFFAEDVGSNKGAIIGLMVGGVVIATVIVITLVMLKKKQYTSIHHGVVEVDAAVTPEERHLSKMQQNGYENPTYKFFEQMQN

[3] = target: T1, Beta-secretase 1 (Homo sapiens, UniProt P56817); experiment: Inhibition of BACE 1 (unknown origin) at 50 uM using Rh-EVNLDAEFK-Quencher as substrate after 1 hr by FRET assay relative to control
T1 sequence (P56817 whole entry): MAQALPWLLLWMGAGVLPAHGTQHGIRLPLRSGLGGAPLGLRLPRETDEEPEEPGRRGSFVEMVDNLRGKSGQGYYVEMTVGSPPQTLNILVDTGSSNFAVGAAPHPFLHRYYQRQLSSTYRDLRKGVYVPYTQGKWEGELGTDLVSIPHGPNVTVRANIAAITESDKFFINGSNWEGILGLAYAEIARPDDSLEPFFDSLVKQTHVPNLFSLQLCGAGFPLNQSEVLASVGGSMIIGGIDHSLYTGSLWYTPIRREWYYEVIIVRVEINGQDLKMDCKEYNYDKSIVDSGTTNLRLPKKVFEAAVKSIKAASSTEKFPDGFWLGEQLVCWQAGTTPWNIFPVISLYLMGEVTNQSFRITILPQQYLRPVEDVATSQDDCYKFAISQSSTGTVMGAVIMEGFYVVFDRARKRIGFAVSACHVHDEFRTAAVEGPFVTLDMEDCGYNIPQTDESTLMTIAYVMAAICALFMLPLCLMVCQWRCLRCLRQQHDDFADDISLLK

[4] = Cytotoxicity against human HEK293 cells assessed as decrease in cell viability after 48 hrs by MTT assay; type: cell-based; conditions: read-out: LD50
[5] = target: T1, Beta-secretase 1; experiment: Inhibition of BACE 1 (unknown origin) using 500 nM of Rh-EVNLDAEFK-Quencher as substrate after 1 hr by FRET assay
[6] = target: T1, Beta-secretase 1; experiment: Inhibition of BACE 1 (unknown origin) using 250 nM of Rh-EVNLDAEFK-Quencher as substrate after 1 hr by FRET assay
[7] = Toxicity in Tetrahymena thermophila assessed as decrease in viability after 48 hrs by MTT assay; type: organism-based; conditions: Tetrahymena thermophila cells, read-out: LD50
[8] = target: Amyloid-beta precursor protein (Homo sapiens) (UniProt P05067); experiment: Inhibition of self-induced amyloid beta (1 to 40) (unknown origin) fibril aggregation assessed as fluorescence emission at 100 uM measured on day 3 by thioflavin-T based assay
[9] = Antioxidant activity assessed as AAPH radical scavenging activity at 1 to 16 uM by ORAC assay; type: functional
[10] = target: Amyloid-beta precursor protein (Homo sapiens) (UniProt P05067); experiment: Inhibition of self-induced amyloid beta (1 to 40) (unknown origin) fibril aggregation assessed as aggregation level at 100 uM measured on day 10 by UV-visible turbidity method; set-up: scale not given: the % may be the effect or the level left
[11] = target: Amyloid-beta precursor protein (Homo sapiens) (UniProt P05067); experiment: Disaggregation of self-induced amyloid beta (1 to 40) (unknown origin) preformed fibrils assessed as aggregation level at 100 uM after 12 days by UV-visible turbidity method
[12] = target: Amyloid-beta precursor protein (Homo sapiens) (UniProt P05067); experiment: Inhibition of self-induced amyloid beta (1 to 40) (unknown origin) fibril aggregation assessed as aggregation level at 100 uM measured on day 7 by UV-visible turbidity method; set-up: scale not given: the % may be the effect or the level left
[13] = target: Amyloid-beta precursor protein (Homo sapiens) (UniProt P05067); experiment: Inhibition of self-induced amyloid beta (1 to 40) (unknown origin) fibril aggregation assessed as fluorescence emission at 100 uM measured on day 7 by thioflavin-T based assay
[14] = test system: Tetrahymena thermophila; experiment: Toxicity in Tetrahymena thermophila assessed as decrease in viability after 48 hrs by MTT assay relative to resveratrol; type: organism-based; conditions: in vivo
[15] = Inhibition of Cu2+ induced amyloid beta (1 to 40) fibril aggregation assessed as aggregation level at 100 uM measured on day 3 by UV-visible turbidity method (reference value: 100 +/- 17.24%); set-up: scale not given: the % may be the effect or the level left
[16] = test system: HEK293; experiment: Cytotoxicity against human HEK293 cells assessed as decrease in cell viability after 48 hrs by MTT assay relative to resveratrol; type: cell-based; conditions: hek293, 48 h
[17] = target: Amyloid-beta precursor protein (Homo sapiens) (UniProt P05067); experiment: Inhibition of self-induced amyloid beta (1 to 40) (unknown origin) fibril aggregation assessed as fluorescence emission at 100 uM measured on day 10 by thioflavin-T based assay; set-up: reference not given here
[18] = Metal chelating activity assessed as compound-Cu2+ adduct formation by spectrophotometric analysis
[19] = Disaggregation of Cu2+ induced amyloid beta (1 to 40) preformed fibrils assessed as fluorescence emission at 100 uM after 4 days by thioflavin-T based assay (reference value: 178.07 +/- 17.24)
[20] = Inhibition of Cu2+ induced amyloid beta (1 to 40) fibril aggregation assessed as aggregation level at 100 uM measured on day 7 by UV-visible turbidity method (reference value: 100 +/- 0.96%); set-up: scale not given: the % may be the effect or the level left
[21] = target: T1, Beta-secretase 1; experiment: Inhibition of BACE 1 (unknown origin) at 10 to 50 uM using Rh-EVNLDAEFK-Quencher as substrate after 1 hr by FRET assay relative to control
[22] = target: Amyloid-beta precursor protein (Homo sapiens) (UniProt P05067); experiment: Disaggregation of self-induced amyloid beta (1 to 40) (unknown origin) preformed fibrils assessed as fluorescence emission at 100 uM after 4 days by thioflavin-T based assay; set-up: reference not given here
[23] = Inhibition of Cu2+ induced amyloid beta (1 to 40) fibril aggregation assessed as fluorescence emission at 100 uM measured on day 7 by thioflavin-T based assay (reference value: 181.04 +/- 1.74)
[24] = Metal chelating activity assessed as inhibition of Cu2+ induced amyloid beta (1 to 40) aggregation by measuring decrease in ROS production at 2 equiv after 75 mins by fluorescence assay
[25] = target: Amyloid-beta precursor protein (Homo sapiens) (UniProt P05067); experiment: Disaggregation of self-induced amyloid beta (1 to 40) (unknown origin) preformed fibrils assessed as fluorescence emission at 100 uM after 12 days by thioflavin-T based assay; set-up: reference not given here
[26] = Inhibition of Cu2+ induced amyloid beta (1 to 40) fibril aggregation assessed as fluorescence emission at 100 uM measured on day 3 by thioflavin-T based assay (reference value: 33.64 +/- 5.80)
[27] = Inhibition of Cu2+ induced amyloid beta (1 to 40) fibril aggregation assessed as fluorescence emission at 100 uM measured on day 10 by thioflavin-T based assay (reference value: 412.11 +/- 35.93)
[28] = target: Amyloid-beta precursor protein (Homo sapiens) (UniProt P05067); experiment: Induction of amyloid beta (1 to 40) (unknown origin) amorphous aggregation at 100 uM after 10 days
[29] = Metal chelating activity assessed as compound-Cu2+ adduct formation at 20 uM by spectrophotometric titration analysis
[30] = Disaggregation of Cu2+ induced amyloid beta (1 to 40) preformed fibrils assessed as fluorescence emission at 100 uM after 12 days by thioflavin-T based assay (reference value: 150.21 +/- 2.32)
[31] = target: Amyloid-beta precursor protein (Homo sapiens) (UniProt P05067); experiment: Inhibition of self-induced amyloid beta (1 to 40) (unknown origin) fibril aggregation assessed as aggregation level at 100 uM measured on day 3 by UV-visible turbidity method; set-up: scale not given: the % may be the effect or the level left
[32] = Disaggregation of Cu2+ induced amyloid beta (1 to 40) preformed fibrils assessed as aggregation level at 100 uM after 4 days by UV-visible turbidity method (reference value: 143.11 +/- 0.76%)
[33] = Inhibition of Cu2+ induced amyloid beta (1 to 40) fibril aggregation assessed as aggregation level at 100 uM measured on day 10 by UV-visible turbidity method (reference value: 100 +/- 8.72%); set-up: scale not given: the % may be the effect or the level left
[34] = Antioxidant activity assessed as AAPH radical scavenging activity up to 64 uM by ORAC assay; type: functional

SMILES | Activity [1] | inhibition [3] | CC50 at 48 h [4] | Flu intensity [8] | ORAC (Trolox equivalents) [9] | Activity [11] | Activity [12] | Flu intensity [13] | Activity [15] | Flu intensity [17] | Flu intensity [19] | Activity [20] | Flu intensity [22] | Flu intensity [23] | inhibition [24] | Flu intensity [25] | Flu intensity [26] | Flu intensity [27] | Flu intensity [30] | Activity [31] | also measured
Oc1ccc(/C=N/CCn2ccc3ccccc32)c(O)c1 | 47.5% | 100% | 193 µM | 273 | 5.22 | 71.8% | 86% | 336 | 722% | 298 | 73 | 112% | 213 | 203 | 68.5% | 183 | 243 | 155 | 59 | 109% | Activity [2]: 83.2%; IC50 [5]: 5.7 µM; IC50 [6]: 4.4 µM; LC50 at 48 h [7]: 556 µM; Activity [10]: 73%; fold change (FC) [14]: 2.3; fold change (FC) [16]: 2.7; Activity [18]: Active; inhibition [21]: < 50%; Activity [28]: 6 to 33%; logKa [29]: 13.4; Activity [32]: 58.6%; Activity [33]: 37.6%
Oc1ccc(/C=C/c2cc(O)cc(O)c2)cc1 [RESVERATROL] | 20.2% |  | 71.3 µM | 272 | 1.7 | 44.5% | 75.2% | 294 | 222% | 251 | 29.8 | 35.9% | 230 | 65 | 9% | 114 | 74.7 | 27.3 | 25.2 | 108% | LC50 at 48 h [7]: 240 µM; Activity [32]: 23.9%; Activity [33]: 6.63%
Cl.Oc1ccc(/C=N/CCNCCn2cnc3ccccc32)c(O)c1 | 38.6% | 62.5% | 184 µM | 165 | 1.42 | 62.6% | 57.5% | 225 | 328% | 282 | 60.4 | 58.5% | 184 | 106 | 93.7% | 160 | 110 | 95 | 48 | 65.6% | Activity [2]: 72.2%; IC50 [5]: 18.5 µM; IC50 [6]: 15.6 µM; LC50 at 48 h [7]: 529 µM; Activity [10]: 69%; fold change (FC) [14]: 2.2; fold change (FC) [16]: 2.6; Activity [18]: Active; inhibition [21]: < 50%; Activity [28]: 6 to 33%; logKa [29]: 14.8; Activity [32]: 48.5%; Activity [33]: 23.1%
O=C(NCCNc1ccnc2cc(Cl)ccc12)c1cnccn1 | 57.6% | 91% | 113 µM | 313 |  | 87.8% | 181% | 707 | 124% | 767 | 109 | 135% | 289 | 245 | 36.2% | 224 | 41.7 | 195 | 71.7 | 125% | Activity [2]: 113%; IC50 [5]: 9.9 µM; IC50 [6]: 1.7 µM; Activity [10]: 188%; fold change (FC) [16]: 1.6; Activity [34]: inactive; logKa [29]: inactive; Activity [32]: 87.7%; Activity [33]: 47.2%
Cl.Nc1ncnc2c1ncn2CCNCC/N=C/c1ccc(O)cc1O | 30.9% | 59.2% | 336 µM | 247 | 2.39 | 88.4% | 90.9% | 356 | 299% | 367 | 60.9 | 94.8% | 246 | 172 | 97.5% | 226 | 100 | 135 | 38.4 | 98.2% | Activity [2]: 96.3%; IC50 [5]: 42 µM; IC50 [6]: 41.4 µM; LC50 at 48 h [7]: 811 µM; Activity [10]: 89.8%; fold change (FC) [14]: 3.4; fold change (FC) [16]: 4.7; Activity [18]: Active; inhibition [21]: < 50%; Activity [28]: 6 to 33%; logKa [29]: 14.8; Activity [32]: 48.9%; Activity [33]: 32.7%
CCN(CC)CCCC(C)Nc1ccnc2cc(Cl)ccc12 (stereo not drawn) |  |  |  |  |  |  |  |  |  |  |  |  |  |  |  |  |  |  |  |  | inhibition [21]: < 50%
Oc1ccccc1/C=N/CCNc1ccnc2cc(Cl)ccc12 | 54.8% | 29.6% | 113 µM | 344 | 2.33 | 90% | 117% | 458 | 410% | 286 | 97 | 98.5% | 262 | 178 | 57.9% | 230 | 138 | 161 | 68.2 | 137% | Activity [2]: 102%; IC50 [6]: > 160 µM; Activity [10]: 94.3%; fold change (FC) [16]: 1.6; Activity [18]: Active; Activity [28]: 6 to 33%; logKa [29]: 15.3; Activity [32]: 78%; Activity [33]: 39.1%
Oc1ccc(/C=N/CCn2ccc3cccnc32)c(O)c1 | 59.7% | 31.6% | 280 µM | 310 | 8.13 | 85.9% | 94% | 368 | 673% | 344 | 106 | 129% | 226 | 233 | 71.9% | 219 | 227 | 185 | 74.3 | 124% | Activity [2]: 88.4%; IC50 [6]: 107 µM; LC50 at 48 h [7]: 610 µM; Activity [10]: 84.2%; fold change (FC) [14]: 2.5; fold change (FC) [16]: 3.9; Activity [18]: Active; inhibition [21]: < 50%; Activity [28]: 6 to 33%; logKa [29]: 12.7; Activity [32]: 85.4%; Activity [33]: 44.9%
C[C@@]1(c2cc(-c3cncnc3)c(F)cc2F)CCSC(N)=N1 |  | 100% |  |  |  |  |  |  |  |  |  |  |  |  |  |  |  |  |  |  | 
O=C1O[C@H]([C@@H](O)CO)C(O)=C1O |  |  |  |  | 62.2 |  |  |  |  |  |  |  |  |  |  |  |  |  |  |  | 
